Patent US10195466B2, “Method for treating skin cancer using radiation therapy” (HACKENSACK UNIVERSITY MEDICAL CENTER, priority 2014, dated 2019)

Legend:
[1] = test system: melanoma cell lines WC00046, WC00060 and WC00081; test: Cell survival (cell count) after irradiation with or without mitochondrial inhibitors; format: cell-based, human; settings: compared to untreated cells, FIG. 1B; for cell killing of melanoma cells: inhibitor combined with high dose rate 2,400 mu/min, 5 μM in medium; for survival rates: melanoma cells, doses 2 Gy, 4 Gy and 8 Gy at 2,400 mu/min and 400 mu/min
Procedure: Three melanoma cell lines; WC00046, WC00060 and WC00081 were used in these examples, in which WC00046 was the most aggressive cell line (metastatic stage II), WC00060 was least aggressive (stage I, primary tumor site) and WC00081 was the medium aggressive (malignant melanoma primary site), purchased from Coriell Institute of Camden, N.J. The primary HEM (human epidermal melanocytes) was purchased from ScienCell Research Laboratories of Carlsbad, Calif. (#2220). Melanoma cells were grown in RPMI (Invitrogen) with 10% FBS, 1% Penicillin/Streptomycin. HEM cells were grown in Mel-M media (ScienCell Research Laboratories, Catalog number 2201) supplemented with 5 ML, Mel GS (ScienCell Research Laboratories, Catalog number 2252), 2.5 ML FBS (ScienCell Research Laboratories, Catalog number 0002) and 5 ML penicillin/Streptomycin solution (ScienCell Research Laboratories, Catalog number 0503), which is a complete medium designed for optimal growth of normal human dermal-derived melanocytes in vitro.
Two mitochondrial inhibitors Oligomycin (Sigma Aldrich # O4876) and Rotenone (Sigma Aldrich #R8875) were used. An optimal concentration of 0.5 uM were used for both melanoma cell lines and HEM added to the growth medium and removed after the irradiation. Dilutions were made in DMSO according to manufacturer's instructions.
Melanoma cell lines WC00046, WC00060 and WC00081 (purchased from Coriell Institute of Camden, N.J.) were seeded at 5×10^5 cells in T-25 culture flasks (BD-Falcon, Franklin Lakes, N.J., Catalog #356536 or equivalent) containing either RPMI media (Invitrogen, Carlsbad, Calif., Catalog #11875119 or equivalent) with 10% fetal bovine serum (FBS; ATCC Catalog #30-2020 or equivalent), 1% Penicillin/Streptomycin (GIBCO, Carlasbad, Calif., Catalog #15140 or equivalent) or RPMI media with 10% FBS, 1% Penicillin/Streptomycin, 5 μM Oligomycin (Sigma-Aldrich, St. Louis, Mo., Catalog #04876) or RPMI media with 10% FBS, 1% Penicillin/Streptomycin, 5 μM Rotenone (Sigma-Aldrich, St. Louis, Mo., Catalog #R8875). Human Epidermal Melanocytes (HEM) (ScienCell Research Laboratories, Carlsbad, Calif., Catalog #2220) were seeded at 5×10^5 cells in a T-25 culture flask (BD-Falcon, Franklin Lakes, N.J., Catalog #356536 or equivalent) containing either Mel-M media (ScienCell Research Laboratories, Carlsbad, Calif., Catalog #2201) or Mel-M media, 5 μM Oligomycin or Mel-M media, 5 μM Rotenone. Cells were allowed to settle and adhere to the T-25 culture flasks by overnight incubation in a humidified incubator at 37° C., 5% CO2. […] Cells were counted and cell survival (%) was recorded two (2) days and seven (7) days post radiation.

melanoma cells [2] = test: MTT cell proliferation assay in irradiated cells; format: cell-based, human; settings: seven days post-irradiation, relative to irradiation alone, FIG. 2B
Procedure: MTT assay was carried out to measure the cell proliferation in radiated cells. Cells were seeded in […] and incubated with MTT assay reagent (tetrazolium dye). MTT assay is based on the ability of metabolically active cells to reduce the yellow tetrazolium salt (MTT) by to form insoluble purple formazan crystals, which are solubilized by the addition of a detergent and quantified (i.e., color). The MTT Cell Proliferation Assay measures the cell proliferation rate and conversely, when metabolic events lead to apoptosis or necrosis, the reduction in cell viability. The number of assay steps has been minimized as much as possible to expedite sample processing. The MTT Reagent yields low background absorbance values in the absence of cells. For each cell type the linear relationship between cell number and signal produced is established, thus allowing an accurate quantification of changes in the rate of cell proliferation.
An MTT (tetrazolium dye) assay was performed to measure cell proliferation in irradiated melanoma cells and HEM. The MTT assay is based on the ability of metabolically active cells to reduce yellow tetrazolium salt (MTT) to insoluble purple formazan crystals. The formazan crystals are solubized in detergent and quantified by colorimetric analysis. […]

melanoma cells [3] = test: Mitotracker Red assay of mitochondrial activity in irradiated cells; format: cell-based, human; settings: irradiated cells with mitochondrial respiration blocked, versus non-irradiated control (Dose 0); FIG. 2A
Procedure: Mitotracker Red CMXRos (Invitrogen-M7512) was used for mitotracker assay. Stock solution was prepared in anhydrous DMSO, and the aliquots were stored in −30° C. Stock solution was diluted with culture media prior to the assay. Cells were treated with Mitotracker working solution (200 nM) and incubated for 15 minutes (37° C., 5% CO2). Labeling solution was removed and cells were washed with 1×PBS followed by fixing with 2% PFA (paraformaldehyde) for 30 minutes at room temperature in dark. Cells were washed with 1×PBS and mounted using DAPI and images were taken immediately.
It is well-known that melanoma cells up-regulate mitochondrial respiration to partly overcome the damage caused by radiation treatment (Rafehi, H et al., “Clonogenic assay: adherent cells.” J. Vis. Exp. 2011 Mar. 13;(49). pii: 2573. doi: 10.3791/2573). In this study, Mitotracker® Red was used to determine mitochondrial activity in irradiated melanoma cells and HEM. Mitotracker® Red is a cell permeant mitochondrial probe that diffuses through the plasma membrane of active mitochondria and is retained there even after fixation of cells. That is, mitochondrial activity is a direct measure of the amount of fluorescent Mitotracker® Red accumulated within the mitochondria.
A Mitotracker® Red CMXRos (Invitrogen, Carlsbad, Calif., Catalog #M7512 or equivalent) assay was performed according to manufacturer's instructions. […]

[4] = test system: melanoma cells WC00046, WC00060 and WC00081; test: Colony formation (clonogenic) assay after irradiation; format: cell-based, human; settings: FIG. 4B
Procedure: (§1) Radiated cells were washed with 1× phosphate buffer saline (PBS), trypsinized and harvested in corning tubes (15 ml, BD Falcon). These cells were serially diluted (1:100, 1:1000, 1:10000) and plated in Petri-dishes (Tissue culture Petri dishes, BD Falcon) with complete media and allowed to grow colonies for 7-21 days. Colonies were stained with Hematoxylin for 30 min after fixing the cells in 100% ethanol for about 20-30 min. Petridishes with stained colonies were washed in water, dried overnight and counts were recorded.
(§2) The colony formation assay, or clonogenic assay, is used to determine the ability of a cell to proliferate (i.e., maintain its reproductive ability to form a colony or clone). This assay has been widely used in radiation biology to assess the effects of ionizing radiation on cells (Sadagopan, R. et al., “Characterization and clinical evaluation of a novel IMRT quality assurance system.” Journal of Applied Clinical Medical Physics 10.2 (2009)). In this study, three (3) melanoma cell lines were used to compare the effects of different radiation dose rates on cell proliferation. Melanoma cell lines were selected based on their known resistance to radiation therapy. Human epidermal melanocytes (HEM) were used to determine the effect of ionizing radiation on normal cells.
(§3) Cells were maintained and irradiated as described in Example 1. Irradiated cells were washed with 1× phosphate buffer saline (PBS) (Sigma Aldrich, St. Louis, Mo., Catalog No. P5493, or equivalent), trypsinized and harvested in 15 mL conical tubes (BD-Falcon, Franklin Lakes, N.J., Catalog #352095 or equivalent). The cells were serially diluted (1:100, 1:1000, 1:10000) and plated in Petri-dishes (BD-Falcon, Franklin Lakes, N.J., Catalog #351007 or equivalent) with the appropriate complete media and allowed to grow colonies for 7-21 days. Colonies were stained with hematoxylin (Sigma-Aldrich, St. Louis, Mo., Catalog #H9627 or equivalent) for 30 minutes after fixing the cells in 100% ethanol (VWR, Radnor, Pa., Catalog #71006-012 or equivalent) for about 20-30 minutes. Petridishes with stained colonies were washed in water, dried overnight and colony counts were recorded.

HEM = test: as above; format: cell-based, human; settings: HEM treated with mitochondrial inhibitors and irradiated; FIG. 4B
Procedure: as §1, §2, §3

[5] = test system: Human Epidermal Melanocytes (HEM); test: Cell survival (cell count) after irradiation with or without mitochondrial inhibitors; format: cell-based; settings: doses 2 Gy, 4 Gy and 8 Gy at 2,400 mu/min and 400 mu/min, compared to untreated cells, FIG. 1B
Procedure: Three melanoma cell lines; WC00046, WC00060 and WC00081 were used in these examples, in which WC00046 was the most aggressive cell line (metastatic stage II), WC00060 was least aggressive (stage I, primary tumor site) and WC00081 was the medium aggressive (malignant melanoma primary site), purchased from Coriell Institute of Camden, N.J. The primary HEM (human epidermal melanocytes) was purchased from ScienCell Research Laboratories of Carlsbad, Calif. (#2220). Melanoma cells were grown in RPMI (Invitrogen) with 10% FBS, 1% Penicillin/Streptomycin. […]
Melanoma cell lines WC00046, WC00060 and WC00081 (purchased from Coriell Institute of Camden, N.J.) were seeded at 5×10^5 cells in T-25 culture flasks (BD-Falcon, Franklin Lakes, N.J., Catalog #356536 or equivalent) containing either RPMI media (Invitrogen, Carlsbad, Calif., Catalog #11875119 or equivalent) with 10% fetal bovine serum (FBS; ATCC Catalog #30-2020 or equivalent), 1% Penicillin/Streptomycin (GIBCO, Carlasbad, Calif., Catalog #15140 or equivalent) or RPMI media with 10% FBS, 1% Penicillin/Streptomycin, 5 μM Oligomycin (Sigma-Aldrich, St. Louis, Mo., Catalog #04876) or RPMI media with 10% FBS, 1% Penicillin/Streptomycin, 5 μM Rotenone (Sigma-Aldrich, St. Louis, Mo., Catalog #R8875). […] Cells were counted and cell survival (%) was recorded two (2) days and seven (7) days post radiation.

[6] = WC00046, 2,400 mu/min, treated with mitochondrial inhibitors
[7] = WC00046, WC00060 and WC00081, 2,400 mu/min, relative to irradiation alone

Question: With `CC[C@H]1/C=C/C=C/C[C@@H](C)[C@H](O)[C@@](C)(O)C(=O)[C@@H](C)[C@H](O)[C@@H](C)C(=O)[C@@H](C)[C@H](O)[C@@H](C)/C=C/C(=O)O[C@@H]2[C@H](C)[C@H](CC1)O[C@]1(CC[C@H](C)[C@H](C[C@@H](C)O)O1)[C@H]2C` [Oligomycin] as the compound, how does the “cell killing of melanoma cells” value [1] read?
Answer: Its value is “augment the cell killing”.

Question: And the survival rates [1]?
Answer: The survival rates was “significantly lower survival rates”.

Question: And the “cell survival (%)” value (melanoma cells [2])?
Answer: Its value is “further reduced”.

Question: And the “mitochondrial activity (Mitotracker Red fluorescence)” value (melanoma cells [3])?
Answer: The value was “reduced below basal levels”.

Question: And the “cell survival (%)” value [4, 6]?
Answer: Its value is 25%.

Question: And the “cell survival (%)” value [4, 7]?
Answer: Its value is “further reduced”.

Question: And the viability and proliferation (HEM)?
Answer: The viability and proliferation was “retained viability and proliferation”.

Question: And the survival rates [5]?
Answer: Its survival rates is “significantly lower survival rates”.

Question: With `C=C(C)[C@H]1Cc2c(ccc3c2O[C@@H]2COc4cc(OC)c(OC)cc4[C@@H]2C3=O)O1` [Rotenone] as the compound, how does the “cell killing of melanoma cells” value [1] read?
Answer: Its value is “augment the cell killing”.

Question: What about the survival rates [1] of the same compound?
Answer: Its survival rates is “significantly lower survival rates”.

Question: And the “cell survival (%)” value (melanoma cells [2])?
Answer: The value was “further reduced”.

Question: And the “mitochondrial activity (Mitotracker Red fluorescence)” value (melanoma cells [3])?
Answer: Its value is “reduced below basal levels”.

Question: And the “cell survival (%)” value [4, 6]?
Answer: The value was 25%.

Question: And the “cell survival (%)” value [4, 7]?
Answer: Its value is “further reduced”.

Question: What about the viability and proliferation (HEM) of the same compound?
Answer: Its viability and proliferation is “retained viability and proliferation”.

Question: And the survival rates [5]?
Answer: The survival rates was “significantly lower survival rates”.
